No end group written: not given here.
Columns and labels:
[1] = system: primary human leukemia cells; experiment: proliferation of primary leukemia cells in vitro; format: cell-based
[2] = molecular target: Sequestosome-1, also known as p62 (Homo sapiens, UniProt Q13501); details: cited from earlier work
[3] = Phase 1 study in healthy volunteers, safety (SAD and MAD phases); format: in vivo, human
From the text: Clinical experience with RIVPA (SEQ ID NO. 5) was obtained in a Phase 1 Study. The primary objective of the study was to determine the maximum tolerated dose (MTD) of single and repeat ascending doses of RIVPA (SEQ ID NO. 5) injectable solution following IV administration in healthy volunteers. The secondary objectives of this study included the assessment of the dose limiting toxicity (DLT), safety, PK and pharmacodynamic (PD) profiles of RIVPA (SEQ ID NO. 5) after single and repeated ascending IV doses of RIVPA (SEQ ID NO. 5). The study was divided into 2 phases: a single-ascending dose (SAD) phase and a multiple-ascending dose (MAD) phase.
Single IV doses of RIVPA (SEQ ID NO. 5) were well tolerated up to the maximum tested (8 mg/kg) and daily IV doses were well tolerated up to the maximum tested (6.5 mg/kg for 7 days). There were no dose limiting toxicities (DLTs) and the MTD was not reached in either phase of the trial. There were no deaths and no clinically significant, severe, or serious Adverse Events (AEs) reported during the study.
The most frequently reported TEAEs (observed in more than one subject who received RIVPA (SEQ ID NO. 5) and in a higher proportion (%) than placebo subjects) were study treatment procedure-related events (General Disorders and Administration Site Conditions) such as vessel puncture site haematoma, vessel puncture site reaction and vessel puncture site pain. All vessel puncture-related events were mild and determined to be unrelated to study treatment by the QI. The second most frequently reported TEAEs were Nervous System Disorders, specifically headache and dizziness; these events were only mild to moderate. All other TEAEs were reported by only 1 subject at any given dose level (maximum of 3 dose levels).
The incidence of “possibly-related” events was also higher in the 2 highest dose levels. However, due to the small sample sizes (4 subjects received active treatment in each cohort), it was not possible to conclude whether the results definitely represented a dose-response. The majority of the TEAEs were not related to study treatment and were mild in severity with only one event reported as moderate. The most frequently reported TEAEs for subjects who received RIVPA (SEQ ID NO. 5) were General Disorders and Administration Site Conditions (i.e., procedure-related events) such as vessel puncture site haematoma, vessel puncture site reaction, and vessel puncture site pain. All vessel puncture-related events were mild and judged to be unrelated to treatment. Increased alanine aminotransferase (ALT) and back pain were reported by 3 (15.0%) subjects who received RIVPA (SEQ ID NO. 5) and these events were observed by only one (10.0%) subject who received the placebo.

[4] = non-GLP pilot toxicology study in nonhuman primates; format: in vivo, cynomolgus monkeys; details: 90, 180 and 220 mg/kg; NHP; resolved within a few minutes
Experimental: (§1) Two pilot and 2 definitive repeat-dose toxicity studies were conducted with RIVPA (SEQ ID NO. 5) in mice and cynomolgus monkeys using the intravenous (IV; slow bolus) route of administration.
These resolved within a few minutes without detectable residual effects.

[5] = GLP 14-day repeat-dose IV toxicity study in mice; format: in vivo, mouse
Experimental: as §1
The safety of multiple daily injections of RIVPA (SEQ ID NO. 5) has also been evaluated in GLP studies in mice and cynomolgus monkeys. In mouse, doses of 20, 60, or 90 mg/kg/day were given IV for 14 days. […] In survivors of all groups, there was no evidence of toxicity in any organ or abnormal biochemistry or hematology.
In the latter study, no effect on T-cell, B-cell or NK-cell counts was observed after 14 days of intravenous RIVPA (SEQ ID NO. 5) dosing in the NHP. […] Collectively, there is no indication of a potential for RIVPA (SEQ ID NO. 5) to cause immunotoxicity or non-specific immune activation. No hyperactivation or suppression of adaptive immune responses, or other impact on the phenotypes of cells associated with adaptive immunity, has been detected following RIVPA (SEQ ID NO. 5) administration.

Sequence of Sequestosome-1, also known as p62 (Q13501 whole entry): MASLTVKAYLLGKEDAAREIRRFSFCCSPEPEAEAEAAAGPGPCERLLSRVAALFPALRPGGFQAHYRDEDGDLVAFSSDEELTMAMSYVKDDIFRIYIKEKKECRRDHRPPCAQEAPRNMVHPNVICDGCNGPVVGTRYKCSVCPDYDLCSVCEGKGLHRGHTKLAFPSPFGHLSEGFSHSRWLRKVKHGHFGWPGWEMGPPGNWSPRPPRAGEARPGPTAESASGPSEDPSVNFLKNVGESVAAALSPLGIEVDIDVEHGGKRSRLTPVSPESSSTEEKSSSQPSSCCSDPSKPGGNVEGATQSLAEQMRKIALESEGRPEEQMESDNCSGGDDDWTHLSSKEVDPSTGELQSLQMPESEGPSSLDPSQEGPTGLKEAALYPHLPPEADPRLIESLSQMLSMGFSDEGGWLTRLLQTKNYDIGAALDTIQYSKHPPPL

RIVPA-NH2 [RIVPA, L-arginyl-L-isoleucyl-L-valyl-L-prolyl-L-alanine-amide]
proliferation of primary human leukemia cells [1]: did not promote the proliferation | binding to p62 [2]: binds | subjects reporting increased alanine aminotransferase (ALT) and back pain ([3]; MAD phase, placebo one (10.0%) subject): 3 (15.0%) subjects | MTD in humans ([3]; either phase of the trial, no DLTs): not reached | single IV dose well tolerated up to the maximum tested ([3]; healthy volunteers, SAD phase): 8 mg/kg | daily IV dose well tolerated up to the maximum tested ([3]; healthy volunteers, daily for 7 days, MAD phase): 6.5 mg/kg | clinical signs during and shortly after dosing [4]: mild clinical signs | adverse effects at 20 mg/kg ([5]; 20 mg/kg/day IV for 14 days, mouse): No adverse effects were observed | mortality at 60 mg/kg ([5]; 60 mg/kg/day IV for 14 days, mouse): Lethality was also observed in 1 animal | mortality at high dose ([5]; 90 mg/kg/day IV for 14 days, mouse): Deaths were observed | immune-related organ weights, histopathology, hematology and clinical chemistry ([5]; mouse 14-day toxicity study): no changes were observed

— US20150148304A1, “Novel Peptides and Analogs for Use in the Treatment of Macrophage Activation Syndrome” (Soligenix, Inc., priority 2013, published 2015)
